Where two headings read alike, the source gives them in different places. Marks after values point to notes of the source that are not given here. Non-standard residues stand in square brackets, D forms with d. PEG2000 = polyethylene glycol 2000, conjugated to the N-terminus; PEG4000 = polyethylene glycol 4000, conjugated to the C-terminus; PEG200 = polyethylene glycol 200, conjugated to the C-terminus; PEG500 = polyethylene glycol 500, conjugated to the C-terminus; 2Nal = N[C@@H](Cc1ccc2ccccc2c1)C(=O)O; PEG1000 = polyethylene glycol 1000
Columns and labels:
[1] = test system: Methicillin-resistant Staphylococcus aureus (MRSA); format: cell-based; conditions: drug-resistant strain MRSA
Method in brief: (§1)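 Five parallel experiments per strain; values are MICs from CLSI-standard broth microdilution of peptides in twofold steps.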

[2] = test system: carbapenem-resistant Escherichia coli (CREC); format: cell-based; conditions: drug-resistant strain CREC
Method in brief: as §1

[3] = test system: carbapenem-resistant Klebsiella pneumoniae (CRKP); format: cell-based; conditions: drug-resistant strain CRKP
Method in brief: as §1

[4] = test system: carbapenem-resistant Pseudomonas aeruginosa (CRPA); format: cell-based; conditions: drug-resistant strain CRPA
Method in brief: as §1

[5] = test system: vancomycin-resistant Enterococcus (VRE); format: cell-based; conditions: drug-resistant strain VRE
Method in brief: as §1

[6] = test system: Methicillin-resistant Staphylococcus aureus (MRSA); format: in vivo, ICR mice; conditions: 0.1 mL twice a day for 4 days, mouse back skin infection
Experimental: (§2) Both female and male ICR mice were used in the test, half of the female and male mice were taken and randomly assigned into groups, with 10 mice in each group, and kept in separate cages. The mice were divided into a blank group, a model group, a positive control Methicillin group, and topical formulation groups of AMPs LV-1 to LV-30. Suspensions of Methicillin-sensitive Staphylococcus aureus (NRS 384) and Methicillin-resistant Staphylococcus aureus (MRSA) were prepared, and their concentrations were adjusted to a concentration of 5×10^6 CFU/mL for subsequent use. Hair on backs of the mice was shaved with a shaver, wound was created on back skin of each mouse using a biopsy punch, and the wound was then infected with Methicillin-sensitive Staphylococcus aureus and Methicillin-resistant Staphylococcus aureus (0.1 mL, 5×10^6 CFU/mL) to establish infection models. Except for the blank group and the model group, all other groups received corresponding topical formulations applied directly to the infected areas, with a dose of 0.1 mL, twice a day for 4 consecutive days. On the day following the final administration, skin from the infected sites of each group was aseptically collected, and an antibacterial rate was calculated.

[7] = test system: Methicillin-sensitive Staphylococcus aureus (NRS 384); format: in vivo, ICR mice; conditions: 0.1 mL twice a day for 4 days, mouse back skin infection
Experimental: as §2

[8] = test system: Pseudomonas aeruginosa ATCC 27853; experiment: Injectable formulations on mice infected with peritonitis; format: in vivo, ICR mice; conditions: twice a day for 3 days; for Number of mice that died on each day after infection: day 1 / Number of mice that died on each day after infection: day 2 / Number of mice that died on each day after infection: day 3 / Number of mice that died on each day after infection: day 4 / Number of mice that died on each day after infection: day 5 / Average survival times (Days): n = 10; for Average survival times (Days): observed for 14 d
Method in brief: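 Survival readout: deaths and survival time tracked for 14 d. Treatment was tail-vein injection by body weight, twice a day for 3 consecutive days, starting right after intraperitoneal challenge with 0.2 mL of 1×10^9 CFU/mL P. aeruginosa ATCC 27853 in male and female ICR mice.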

Substance | MIC MRSA [1] [mg/L] | MIC CREC [2] [mg/L] | MIC CRKP [3] [mg/L] | MIC CRPA [4] [mg/L] | MIC VRE [5] [mg/L] | Inhibition rate against Methicillin-resistant Staphylococcus aureus (%) ([6]; topical formulation 0.2 mg/mL) | Inhibition rate against Methicillin-resistant Staphylococcus aureus (%) ([6]; topical formulation 1 mg/mL) | Inhibition rate against Methicillin-resistant Staphylococcus aureus (%) ([6]; topical formulation 5 mg/mL) | Inhibition rate against Methicillin-sensitive Staphylococcus aureus (%) ([7]; topical formulation 0.2 mg/mL) | Inhibition rate against Methicillin-sensitive Staphylococcus aureus (%) ([7]; topical formulation 1 mg/mL) | Inhibition rate against Methicillin-sensitive Staphylococcus aureus (%) ([7]; topical formulation 5 mg/mL) | Number of mice that died on each day after infection: day 1 ([8]; 1 mg/kg via tail vein) [Mouse] | Number of mice that died on each day after infection: day 2 ([8]; 1 mg/kg via tail vein) [Mouse] | Number of mice that died on each day after infection: day 3 ([8]; 1 mg/kg via tail vein) [Mouse] | Number of mice that died on each day after infection: day 4 ([8]; 1 mg/kg via tail vein) [Mouse] | Number of mice that died on each day after infection: day 5 ([8]; 1 mg/kg via tail vein) [Mouse] | Average survival times (Days) ([8]; 1 mg/kg via tail vein) | further results
Ac-RKLLXRLKXRK-PEG4000 [LV-30] (Ac-RKLL[2Nal]RLK[2Nal]RK-PEG4000) [polyethylene glycol 4000 conjugated to C-terminal; X=3-(2-naphthyl)-alanine] | 8 | 4 | 4 | 8 | 4 | 86.10 | 87.85 | 88.93 | 96.07 | 96.91 | 98.24 | 1 | 1 | 0 | 1 | 1 | 9.6*** Days | 
Ac-RKLLXRLKXRK-PEG500 [LV-27] (Ac-RKLL[2Nal]RLK[2Nal]RK-PEG500) [polyethylene glycol 500 conjugated to C-terminal; X=3-(2-naphthyl)-alanine] | 8 | 4 | 4 | 4 | 8 | 86.50 | 89.66 | 88.02 | 97.01 | 98.74 | 97.65 | 1 | 1 | 0 | 1 | 0 | 10.5**** Days | Number of mice that died on each day after infection: day 1 ([8]; 0.2 mg/kg via tail vein): 2 Mouse; Number of mice that died on each day after infection: day 2 ([8]; 0.2 mg/kg via tail vein): 2 Mouse; Number of mice that died on each day after infection: day 3 ([8]; 0.2 mg/kg via tail vein): 0 Mouse; Number of mice that died on each day after infection: day 4 ([8]; 0.2 mg/kg via tail vein): 1 Mouse; Number of mice that died on each day after infection: day 5 ([8]; 0.2 mg/kg via tail vein): 1 Mouse; Average survival times (Days) ([8]; 0.2 mg/kg via tail vein): 7.1** Days; Number of mice that died on each day after infection: day 1 ([8]; 5 mg/kg via tail vein): 0 Mouse; Number of mice that died on each day after infection: day 2 ([8]; 5 mg/kg via tail vein): 3 Mouse; Number of mice that died on each day after infection: day 3 ([8]; 5 mg/kg via tail vein): 0 Mouse; Number of mice that died on each day after infection: day 4 ([8]; 5 mg/kg via tail vein): 1 Mouse; Number of mice that died on each day after infection: day 5 ([8]; 5 mg/kg via tail vein): 0 Mouse; Average survival times (Days) ([8]; 5 mg/kg via tail vein): 9.4*** Days; survival time of mice infected with Pseudomonas aeruginosa ([8]; tail vein, observed 14 d): superior to those of the Levofloxacin group
Ac-RKLLXRLKXRK-PEG200 [LV-26] (Ac-RKLL[2Nal]RLK[2Nal]RK-PEG200) [polyethylene glycol 200 conjugated to C-terminal; X=3-(2-naphthyl)-alanine] | 4 | 8 | 2 | 4 | 2 | 86.51 | 86.79 | 87.56 | 96.35 | 96.92 | 97.87 | 1 | 1 | 1 | 1 | 1 | 8.5** Days | 
Ac-RKLLXRLKXRK-PEG1000 [LV-28] (Ac-RKLL[2Nal]RLK[2Nal]RK-PEG1000) [polyethylene glycol 1000 conjugated to C-terminal; X=3-(2-naphthyl)-alanine] | 4 | 4 | 4 | 8 | 4 | 86.23 | 87.81 | 88.66 | 96.03 | 96.75 | 97.82 | 1 | 0 | 1 | 1 | 1 | 9.7*** Days | 
PEG2000-RKLLXRLKXRK-NH2 [LV-29] (PEG2000-RKLL[2Nal]RLK[2Nal]RK-NH2) [polyethylene glycol 2000 conjugated to N-terminal; X=3-(2-naphthyl)-alanine] | 4 | 8 | 8 | 4 | 4 | 86.34 | 87.29 | 88.16 | 96.49 | 97.11 | 98.65 | 1 | 0 | 0 | 3 | 1 | 8.8** Days | 
